Laboratory results reported in ChEMBL document CHEMBL1201862, “PubChem BioAssay data set” (2004).
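48-hour exposure; five concentrations; linearly interpolated endpoints. GI50: concentration for 50% inhibition of growth.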 Active and inactive are the calls of the source. Cut-off read from the data, not from the text of the source: active = GI50 up to about 1.1 µM and inactive = higher.

What was measured:
Assay in all cases: NCI-60 cell line screen, 48 h
MOLT-4 = test system: MOLT-4
SR = test system: SR
HT-29 = test system: HT-29
OVCAR-4 = test system: OVCAR-4
IGROV-1 = test system: IGROV-1
SF-295 = test system: SF-295
SK-OV-3 = test system: SK-OV-3
OVCAR-8 = test system: OVCAR-8
SNB-19 = test system: SNB-19
SK-MEL-2 = test system: SK-MEL-2
SW-620 = test system: SW-620
SNB-75 = test system: SNB-75
RPMI-8226 = test system: RPMI-8226
NCI-H226 = test system: NCI-H226
OVCAR-5 = test system: OVCAR-5
SK-MEL-28 = test system: SK-MEL-28
SN12C = test system: SN12C
HOP-92 = test system: HOP-92
NCI-H23 = test system: NCI-H23
T47D = test system: T47D
UACC-257 = test system: UACC-257
A498 = test system: A498
786-0 = test system: 786-0
HL-60 = test system: HL-60
PC-3 = test system: PC-3
HCT-15 = test system: HCT-15
BT-549 = test system: BT-549
A549 = test system: A549
SF-539 = test system: SF-539
NCI-H460 = test system: NCI-H460
HCT-116 = test system: HCT-116
U-251 = test system: U-251
SK-MEL-5 = test system: SK-MEL-5
MDA-MB-435 = test system: MDA-MB-435
ACHN = test system: ACHN
UO-31 = test system: UO-31
HCC 2998 = test system: HCC 2998
TK-10 = test system: TK-10
MDA-N = test system: MDA-N
UACC-62 = test system: UACC-62
DU-145 = test system: DU-145
M14 = test system: M14
KM12 = test system: KM12
CAKI-1 = test system: CAKI-1
EKVX = test system: EKVX
K562 = test system: K562
SF-268 = test system: SF-268
MCF7 = test system: MCF7
MDA-MB-231 = test system: MDA-MB-231
Hs-578T = test system: Hs-578T
HOP-62 = test system: HOP-62
COLO 205 = test system: COLO 205
NCI-H522 = test system: NCI-H522
OVCAR-3 = test system: OVCAR-3
NCI/ADR-RES = test system: NCI/ADR-RES
CCRF-CEM = test system: CCRF-CEM
LOX IMVI = test system: LOX IMVI
RXF 393 = test system: RXF 393
Malme-3M = test system: Malme-3M

Measured: GI50

Cc1cn(C(CO)OC(CO)CN(O)C2C3CC4CC(C3)CC2C4)c(=O)[nH]c1=O (stereo not given)
> 100 µM: HCT-15
inactive: MOLT-4 > 100 µM | SR > 100 µM | HT-29 > 100 µM | OVCAR-4 > 100 µM | IGROV-1 > 100 µM | SF-295 > 100 µM | SK-OV-3 > 100 µM | OVCAR-8 > 100 µM | SNB-19 > 100 µM | SK-MEL-2 > 100 µM | SW-620 > 100 µM | SNB-75 > 100 µM | RPMI-8226 > 100 µM | NCI-H226 > 100 µM | OVCAR-5 > 100 µM | SK-MEL-28 > 100 µM | SN12C > 100 µM | HOP-92 > 100 µM | NCI-H23 > 100 µM | T47D > 100 µM | UACC-257 > 100 µM | A498 > 100 µM | 786-0 > 100 µM | HL-60 > 100 µM | PC-3 > 100 µM | BT-549 > 100 µM | A549 > 100 µM | SF-539 > 100 µM | NCI-H460 > 100 µM | HCT-116 > 100 µM | U-251 > 100 µM | SK-MEL-5 > 100 µM | MDA-MB-435 > 100 µM | ACHN > 100 µM | UO-31 > 100 µM | HCC 2998 > 100 µM | TK-10 > 100 µM | MDA-N > 100 µM | UACC-62 > 100 µM | DU-145 > 100 µM | M14 > 100 µM | KM12 > 100 µM | CAKI-1 > 100 µM | EKVX > 100 µM | K562 > 100 µM | SF-268 > 100 µM | MCF7 > 100 µM | MDA-MB-231 > 100 µM | Hs-578T > 100 µM | HOP-62 > 100 µM | COLO 205 > 100 µM

CC1(C)CCC(C)(C)c2cc(C(=O)Nc3ccc(C(=O)O)cc3)ccc21
22.7 µM: HCT-15
inactive: MOLT-4 24.9 µM | SR 15 µM | HT-29 20.7 µM | OVCAR-4 20.9 µM | IGROV-1 22.7 µM | SF-295 22 µM | SK-OV-3 19.8 µM | OVCAR-8 30.5 µM | SNB-19 26.1 µM | SK-MEL-2 22.1 µM | SW-620 36.7 µM | SNB-75 26.4 µM | NCI-H522 26.9 µM | RPMI-8226 14.5 µM | NCI-H226 > 44.8 µM | OVCAR-5 32.3 µM | SK-MEL-28 40.3 µM | SN12C 31.8 µM | HOP-92 27.1 µM | NCI-H23 17.9 µM | T47D 15.5 µM | UACC-257 28.2 µM | A498 31.7 µM | 786-0 28.9 µM | OVCAR-3 17.9 µM | HL-60 3.52 µM | PC-3 19.9 µM | BT-549 25.5 µM | A549 20 µM | NCI/ADR-RES 19.9 µM | CCRF-CEM 18.2 µM | SF-539 13.4 µM | NCI-H460 19.9 µM | HCT-116 19.3 µM | U-251 27 µM | SK-MEL-5 23.6 µM | MDA-MB-435 16.4 µM | ACHN 21.5 µM | UO-31 14.9 µM | HCC 2998 19.2 µM | TK-10 26.1 µM | LOX IMVI 24.4 µM | MDA-N 22 µM | UACC-62 17.3 µM | DU-145 28.4 µM | M14 19.6 µM | KM12 26.5 µM | CAKI-1 18.4 µM | EKVX 19.5 µM | K562 22.8 µM | RXF 393 7.62 µM | SF-268 27.3 µM | MCF7 33.1 µM | MDA-MB-231 22.4 µM | HOP-62 18.7 µM | Malme-3M 18.7 µM | COLO 205 18 µM
